Reference: patent US8835644B2, “Broad spectrum benzothiophene-nitrothiazolide and other antimicrobials” (University of Virginia Patent Foundation, priority 2009, dated 2014)
≈ marks a conversion by molar mass, not a printed value. Like-named read-outs stand apart in the source and are kept apart here.

Tests used:
[1] = test system: H. pylori; experiment: MIC testing by broth dilution, H. pylori; type: cell-based, Helicobacter pylori
Method: (§1) A standard broth dilution protocol was used in 96 well microplates containing a standard dilution of the microorganism to be tested in 100 microliters of the appropriate medium. Appropriate medium: E. coli, LB medium; Staphylococcus strains, Trypticase Soy; and for H. pylori and C. jejuni, Brain Heart Infusion. The compounds to be tested were set at 32 μg/ml in 200 microliters in well one and then serially diluted to provide a range from 32 to 0.06. The wells were scored visually at 24 h. The well where there was no growth was recorded as the MIC. Clostridium difficile was tested by agar diffusion and disk diffusion (Kirby Bower) methods under anaerobic conditions on Wilkins Chalgrin agar. In these assays, zone of inhibited growth was measured and compared by relative ratio to the zone recorded for NTZ.
(§2) Representative compounds of the invention were tested in a series of assays against a series of organisms as described above. […] The organisms tested include, C. difficile, H. pylori, C. jejuni, MRSA, S. epidermidis, and E. coli. S. epidermidis and E. coli were tested in the plank and biofilm assay. A disk diffusion assay was also used for C. difficile. Direct PFOR enzyme assays were also performed. All analogues and derivatives were not tested on every organism in every type of assay (the “-” in each table means that it was not tested).

[2] = test system: C. jejuni; experiment: MIC testing by broth dilution, C. jejuni; type: cell-based, Campylobacter jejuni
Method: as §1, §2

[3] = test system: MRSA; experiment: MIC testing by broth dilution, MRSA; type: cell-based, Staphylococcus aureus
Method: as §1, §2

[4] = test system: S. epidermidis; experiment: MIC testing by broth dilution, S. epidermidis plank; type: cell-based, Staphylococcus epidermidis
Method: as §1, §2

[5] = test system: E. coli; experiment: MIC testing by broth dilution, E. coli plank; type: cell-based, Escherichia coli
Method: as §1, §2

[6] = Furan analogues table, read-out: MIC H. pylori
[7] = Furan analogues table, read-out: MIC C. jejuni
[8] = Furan analogues table, read-out: MIC MRSA
[9] = planktonic, Furan analogues table, read-out: MIC S. epidermidis Plank
[10] = planktonic, Furan analogues table, read-out: MIC E. coli Plank
[11] = Thiophene analogues table, read-out: MIC H. pylori
[12] = Thiophene analogues table, read-out: MIC C. jejuni
[13] = Thiophene analogues table, read-out: MIC MRSA
[14] = planktonic, Thiophene analogues table, read-out: MIC S. epidermidis Plank
[15] = planktonic, Thiophene analogues table, read-out: MIC E. coli Plank
[16] = broth dilution, Brain Heart Infusion, 24 h, read-out: MIC (μM) H. pylori
[17] = broth dilution, Brain Heart Infusion, 24 h, read-out: MIC (μM) C. jejuni
[18] = broth dilution, Trypticase Soy, 24 h, read-out: MIC (μM) MRSA
[19] = broth dilution, Trypticase Soy, 24 h, read-out: MIC (μM) S. epidermidis Plank
[20] = broth dilution, LB medium, 24 h, read-out: MIC (μM) E. coli Plank

Compound `O=C(Nc1ncc([N+](=O)[O-])s1)c1ccc(-c2ccc3c(c2)OCO3)o1` [VPC16b1132] has an MIC [1, 6] of 1.4 µM (≈ 0.503 µg/mL), an MIC [2, 7] of 89.1 µM (≈ 32 µg/mL) and an MIC [3, 8] of 89.1 µM (≈ 32 µg/mL). It also gave an MIC [4, 9] of 89.1 µM (≈ 32 µg/mL) and an MIC [5, 10] of 89.1 µM (≈ 32 µg/mL).
`COc1ccc(-c2ccc(C(=O)Nc3ncc([N+](=O)[O-])s3)o2)cc1` [VPC16b1139] gave an MIC [1, 6] of 1.5 µM (≈ 0.518 µg/mL), an MIC [2, 7] of 92.7 µM (≈ 32 µg/mL) and an MIC [3, 8] of 92.7 µM (≈ 32 µg/mL). For the same compound, the MIC [4, 9] was 92.7 µM (≈ 32 µg/mL) and the MIC [5, 10] was 92.7 µM (≈ 32 µg/mL).
Work on `O=C(Nc1ncc([N+](=O)[O-])s1)c1ccc(-c2ccoc2)o1` [VPC16b1142] yielded an MIC [1, 6] of 1.6 µM (≈ 0.488 µg/mL), an MIC [2, 7] of 13.1 µM (≈ 4 µg/mL) and an MIC [3, 8] of 26.2 µM (≈ 8 µg/mL). For the same compound, the MIC [4, 9] was 13.1 µM (≈ 4 µg/mL) and the MIC [5, 10] was 104.8 µM (≈ 32 µg/mL).
Work on `O=C(Nc1ncc([N+](=O)[O-])s1)c1ccc(-c2cccs2)o1` [VPC16b1145, N-(5-Nitrothiazol-2-yl)-5-(thiophen-2-yl)furan-2-carboxamide] yielded an MIC ([1]; Helicobacter pylori, Furan analogues table, read-out: MIC H. pylori) of 1.9 µM (≈ 0.611 µg/mL), an MIC ([2]; Campylobacter jejuni, Furan analogues table, read-out: MIC C. jejuni) of 12.5 µM (≈ 4.02 µg/mL) and an MIC ([3]; Staphylococcus aureus, MRSA, Furan analogues table, read-out: MIC MRSA) of 12.4 µM (≈ 3.98 µg/mL). It also gave an MIC ([4]; Staphylococcus epidermidis, planktonic, Furan analogues table, read-out: MIC S. epidermidis Plank) of 12.4 µM (≈ 3.98 µg/mL) and an MIC ([5]; Escherichia coli, planktonic, Furan analogues table, read-out: MIC E. coli Plank) of 99.6 µM (≈ 32 µg/mL).
In the case of `O=C(Nc1ncc([N+](=O)[O-])s1)c1ccc(-c2ccco2)s1` [VPC16b1148], the MIC [1, 11] is reported as 7.8 µM (≈ 2.51 µg/mL), the MIC [2, 12] is reported as 12.4 µM (≈ 3.98 µg/mL) and the MIC [3, 13] is reported as 24.9 µM (≈ 8 µg/mL). For the same compound, the MIC [4, 14] was 12.4 µM (≈ 3.98 µg/mL) and the MIC [5, 15] was 99.6 µM (≈ 32 µg/mL).
`O=C(Nc1ncc([N+](=O)[O-])s1)c1ccc(-c2ccsc2)s1` [VPC16b1154] gave an MIC [1, 11] of 3.0 µM (≈ 1.01 µg/mL), an MIC [2, 12] of 94.8 µM (≈ 32 µg/mL) and an MIC [3, 13] of 94.8 µM (≈ 32 µg/mL). The MIC [4, 14] was 94.8 µM (≈ 32 µg/mL) and the MIC [5, 15] was 94.8 µM (≈ 32 µg/mL).
For `Cc1cccc(-c2ccc(C(=O)Nc3ncc([N+](=O)[O-])s3)s2)c1` [VPC16b2011], the MIC [1, 11] was 2.2 µM (≈ 0.76 µg/mL), the MIC [2, 12] was 92.6 µM (≈ 32 µg/mL) and the MIC [3, 13] was 92.6 µM (≈ 32 µg/mL). The MIC [4, 14] was 92.6 µM (≈ 32 µg/mL) and the MIC [5, 15] was 92.6 µM (≈ 32 µg/mL).
With `Cc1cccc(-c2ccc(C(=O)Nc3ncc([N+](=O)[O-])s3)o2)c1` [VPC16b2014] the MIC [1, 6] was 2.3 µM (≈ 0.757 µg/mL), the MIC [2, 7] was 97.2 µM (≈ 32 µg/mL) and the MIC [3, 8] was 97.2 µM (≈ 32 µg/mL). The MIC [4, 9] was 97.2 µM (≈ 32 µg/mL) and the MIC [5, 10] was 97.2 µM (≈ 32 µg/mL).
For `Cc1ccc(-c2ccc(C(=O)Nc3ncc([N+](=O)[O-])s3)o2)cc1` [VPC16b2019], the MIC [1, 6] was 1.5 µM (≈ 0.494 µg/mL), the MIC [2, 7] was 97.2 µM (≈ 32 µg/mL) and the MIC [3, 8] was 97.2 µM (≈ 32 µg/mL). The MIC [4, 9] was 97.2 µM (≈ 32 µg/mL) and the MIC [5, 10] was 97.2 µM (≈ 32 µg/mL).
`O=C(Nc1ncc([N+](=O)[O-])s1)c1ccc(-c2cccs2)s1` [VPC16b2021] showed an MIC [1, 11] of 3.0 µM (≈ 1.01 µg/mL), an MIC [2, 12] of 94.8 µM (≈ 32 µg/mL) and an MIC [3, 13] of 94.8 µM (≈ 32 µg/mL). The MIC [4, 14] was 94.8 µM (≈ 32 µg/mL) and the MIC [5, 15] was 94.8 µM (≈ 32 µg/mL).
`O=C(Nc1ncc([N+](=O)[O-])s1)c1ccc(-c2ccsc2)o1` [VPC16b2022] gave an MIC [1, 6] of 6.2 µM (≈ 1.99 µg/mL), an MIC [2, 7] of 99.6 µM (≈ 32 µg/mL) and an MIC [3, 8] of 99.6 µM (≈ 32 µg/mL). For the same compound, the MIC [4, 9] was 99.6 µM (≈ 32 µg/mL) and the MIC [5, 10] was 99.6 µM (≈ 32 µg/mL).
For `O=C(Nc1ncc([N+](=O)[O-])s1)c1ccc(-c2ccccc2)o1` [VPC16c1020], the MIC [1, 6] was 2.4 µM (≈ 0.757 µg/mL), the MIC [2, 7] was 101.5 µM (≈ 32 µg/mL) and the MIC [3, 8] was 101.5 µM (≈ 32 µg/mL). For the same compound, the MIC [4, 9] was 101.5 µM (≈ 32 µg/mL) and the MIC [5, 10] was 101.5 µM (≈ 32 µg/mL).
`O=C(Nc1ccccc1)Nc1ncc([N+](=O)[O-])s1` [VPC161223, 1-(5-Nitrothiazol-2-yl)-3-phenylurea] was tested, and the MIC ([1]; Helicobacter pylori, 24 h, read-out: MIC (μM) H. pylori) was 1.4 µM (≈ 0.37 µg/mL), the MIC ([2]; Campylobacter jejuni, 24 h, read-out: MIC (μM) C. jejuni) was 30.3 µM (≈ 8.01 µg/mL) and the MIC ([3]; Staphylococcus aureus, MRSA, 24 h, read-out: MIC (μM) MRSA) was 30.3 µM (≈ 8.01 µg/mL). It also gave an MIC ([4]; Staphylococcus epidermidis, 24 h, read-out: MIC (μM) S. epidermidis Plank) of 30.3 µM (≈ 8.01 µg/mL) and an MIC ([5]; Escherichia coli, 24 h, read-out: MIC (μM) E. coli Plank) of 121 µM (≈ 32 µg/mL).
Compound `O=C(Nc1nccs1)c1sc2cc(F)ccc2c1Cl` [VPC161235] has an MIC ([1]; Helicobacter pylori, Thiophene analogues table, read-out: MIC H. pylori) of 12.8 µM (≈ 4 µg/mL), an MIC ([2]; Campylobacter jejuni, Thiophene analogues table, read-out: MIC C. jejuni) of 102 µM (≈ 32 µg/mL) and an MIC ([3]; Staphylococcus aureus, MRSA, Thiophene analogues table, read-out: MIC MRSA) of 102 µM (≈ 32 µg/mL). It also gave an MIC ([4]; Staphylococcus epidermidis, planktonic, Thiophene analogues table, read-out: MIC S. epidermidis Plank) of 102 µM (≈ 32 µg/mL) and an MIC ([5]; Escherichia coli, planktonic, Thiophene analogues table, read-out: MIC E. coli Plank) of 102 µM (≈ 32 µg/mL).
`O=C(C=Cc1ccc(C(F)(F)F)cc1)Nc1ncc([N+](=O)[O-])s1` [VPC161239] showed an MIC [1, 16] of 0.6 µM (≈ 0.206 µg/mL), an MIC [2, 17] of 93.2 µM (≈ 32 µg/mL) and an MIC [3, 18] of 93.2 µM (≈ 32 µg/mL). It also gave an MIC [4, 19] of 2.9 µM (≈ 0.996 µg/mL) and an MIC [5, 20] of 93.2 µM (≈ 32 µg/mL).
`Cl.NCCOc1cc([N+](=O)[O-])ccc1C(=O)Nc1ncc([N+](=O)[O-])s1` [VPC161256] gave an MIC [1, 16] of 1.3 µM, an MIC [2, 17] of 5.1 µM and an MIC [3, 18] of 82.1 µM. It also gave an MIC [4, 19] of 82.1 µM and an MIC [5, 20] of 82.1 µM.
